In data set [1] the target is T1, Metabotropic glutamate receptor 5 (Homo sapiens, UniProt P41594). Briefly: Agonist activity at human mGluR5 transiently transfected in BHK cells assessed as potentiation of L-glutamate-induced calcium flux by FLIPR assay. It is filed as functional, cell-based. A general note: Calcium flux is commonly read through the fluorescence of an indicator in the cells.
Target sequence in this assay (P41594 whole entry): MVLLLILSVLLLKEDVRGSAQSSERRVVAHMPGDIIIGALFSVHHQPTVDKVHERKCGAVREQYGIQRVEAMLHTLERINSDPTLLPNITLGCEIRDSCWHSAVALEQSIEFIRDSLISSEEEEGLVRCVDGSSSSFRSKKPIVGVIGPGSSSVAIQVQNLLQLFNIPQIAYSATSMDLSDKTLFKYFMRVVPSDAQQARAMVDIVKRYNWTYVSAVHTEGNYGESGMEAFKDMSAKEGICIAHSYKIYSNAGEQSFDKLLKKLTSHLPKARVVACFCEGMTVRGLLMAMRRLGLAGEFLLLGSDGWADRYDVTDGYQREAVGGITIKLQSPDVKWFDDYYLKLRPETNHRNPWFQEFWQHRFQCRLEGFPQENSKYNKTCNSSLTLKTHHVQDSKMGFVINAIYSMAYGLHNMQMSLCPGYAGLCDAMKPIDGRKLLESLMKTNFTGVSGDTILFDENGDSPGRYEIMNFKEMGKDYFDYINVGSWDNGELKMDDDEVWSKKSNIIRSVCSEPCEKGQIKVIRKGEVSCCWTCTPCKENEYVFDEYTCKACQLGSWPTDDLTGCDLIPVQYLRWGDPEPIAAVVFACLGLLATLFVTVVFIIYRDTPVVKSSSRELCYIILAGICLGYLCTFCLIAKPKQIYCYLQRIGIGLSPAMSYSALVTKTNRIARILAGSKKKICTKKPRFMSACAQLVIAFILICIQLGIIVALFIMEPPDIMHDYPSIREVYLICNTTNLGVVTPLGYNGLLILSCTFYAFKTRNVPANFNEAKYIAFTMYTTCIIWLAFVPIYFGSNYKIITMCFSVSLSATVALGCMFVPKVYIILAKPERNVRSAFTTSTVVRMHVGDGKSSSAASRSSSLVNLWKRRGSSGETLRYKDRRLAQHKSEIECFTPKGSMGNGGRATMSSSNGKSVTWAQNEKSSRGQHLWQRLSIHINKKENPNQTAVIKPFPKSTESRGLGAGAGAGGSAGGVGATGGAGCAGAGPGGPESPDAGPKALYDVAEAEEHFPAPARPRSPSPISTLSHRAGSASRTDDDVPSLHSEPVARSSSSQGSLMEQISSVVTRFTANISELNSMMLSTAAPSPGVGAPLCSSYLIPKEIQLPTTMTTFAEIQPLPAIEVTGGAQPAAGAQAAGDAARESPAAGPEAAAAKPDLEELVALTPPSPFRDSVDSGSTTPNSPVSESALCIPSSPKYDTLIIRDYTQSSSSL
In data set [2] the target is T1, Metabotropic glutamate receptor 5. Put plainly: Displacement of [3H]quisqualic acid from human recombinant mGluR5 expressed in BHK cells by radioligand binding assay. The data set is classed as cell-based. For orientation: Displacement assays read how much labelled ligand stays bound in the presence of the test substance.
Target sequence in this assay (P41594 21-1212 limits assumed): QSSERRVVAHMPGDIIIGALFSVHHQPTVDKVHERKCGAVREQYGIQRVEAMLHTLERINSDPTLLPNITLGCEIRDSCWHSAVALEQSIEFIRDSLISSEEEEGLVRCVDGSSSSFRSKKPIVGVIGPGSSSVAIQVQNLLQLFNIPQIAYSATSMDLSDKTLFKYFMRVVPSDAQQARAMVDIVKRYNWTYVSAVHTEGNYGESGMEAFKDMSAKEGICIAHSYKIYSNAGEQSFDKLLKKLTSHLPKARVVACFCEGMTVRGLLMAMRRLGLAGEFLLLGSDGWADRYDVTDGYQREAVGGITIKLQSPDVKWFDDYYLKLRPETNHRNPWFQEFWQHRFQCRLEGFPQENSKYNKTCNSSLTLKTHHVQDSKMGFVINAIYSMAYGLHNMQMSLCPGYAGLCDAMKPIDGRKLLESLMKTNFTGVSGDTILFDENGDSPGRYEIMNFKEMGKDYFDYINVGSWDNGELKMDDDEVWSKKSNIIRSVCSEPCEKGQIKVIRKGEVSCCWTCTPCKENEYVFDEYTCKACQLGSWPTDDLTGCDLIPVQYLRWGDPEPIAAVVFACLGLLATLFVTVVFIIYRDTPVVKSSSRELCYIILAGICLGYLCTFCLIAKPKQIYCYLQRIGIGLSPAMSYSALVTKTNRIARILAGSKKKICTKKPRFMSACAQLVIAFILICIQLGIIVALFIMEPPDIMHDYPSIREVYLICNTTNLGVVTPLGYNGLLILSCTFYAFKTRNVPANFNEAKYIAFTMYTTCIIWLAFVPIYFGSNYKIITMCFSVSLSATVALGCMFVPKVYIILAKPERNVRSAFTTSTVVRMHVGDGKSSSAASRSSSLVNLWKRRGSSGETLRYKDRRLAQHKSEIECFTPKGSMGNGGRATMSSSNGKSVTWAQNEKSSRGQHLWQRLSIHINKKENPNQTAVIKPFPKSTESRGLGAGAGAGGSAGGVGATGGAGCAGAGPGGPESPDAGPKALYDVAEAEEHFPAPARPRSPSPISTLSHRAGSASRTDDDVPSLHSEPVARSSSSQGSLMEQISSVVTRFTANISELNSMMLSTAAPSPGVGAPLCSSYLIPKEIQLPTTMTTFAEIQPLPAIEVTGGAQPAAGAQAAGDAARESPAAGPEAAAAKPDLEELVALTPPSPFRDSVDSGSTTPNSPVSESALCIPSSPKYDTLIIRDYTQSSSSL
Data set [3] has the same target. Briefly: Potentiation of [3H]quisqualic acid binding to human recombinant mGluR5 expressed in BHK cells at >1 uM by radioligand binding assay. The data set is classed as cell-based.
Target sequence in this assay (P41594 21-1212 limits assumed): as above
Data set [4] shares this target. Put plainly: Displacement of [3H]MPEP from human recombinant mGluR5 expressed in BHK cells at by radioligand binding assay. It is filed as cell-based.
Target sequence in this assay (P41594 whole entry): as the sequence (P41594 whole entry) above
The target is the same in data set [5]. Briefly: Activity at human mGluR5 transiently transfected in BHK cells assessed as decrease in maximum response of L-glutamate for calcium flux at 0.60 uM by FLIPR assay. The data set is classed as functional, cell-based.
Target sequence in this assay (P41594 21-1212 limits assumed): as the sequence (P41594 21-1212 limits assumed) above
Data set [6] concerns the target Metabotropic glutamate receptor 1 (Homo sapiens) (UniProt Q13255). Put plainly: Agonist activity at mGluR1 at 10 uM. It is filed as functional.
For data set [7] the target is unchanged. Put plainly: Antagonist activity at mGluR1 at 10 uM. It is filed as functional.
The target is the same in data set [8]. Put plainly: Allosteric modulation of mGluR1 at 10 uM.
Data set [9] can be described thus: Aqueous solubility at pH 7.4. It is filed as physicochemical. As to conditions: aqueous medium.
Data set [10] can be described thus: Ratio of drug level in brain to plasma in C57/6J mouse at 5 mg/kg, po by turboflow chromatography. The data set is classed as ADME, organism-based. Further details: dose 5 mg/kg, route oral. As to conditions: brain and plasma.
Data set [11] can be described thus: Ratio of drug level in brain to plasma in Lister Hooded rat at 2.5 mg/kg, po by turboflow chromatography. Conditions: brain and plasma. Further details: dose 2.5 mg/kg, route oral. It is filed as ADME, organism-based.
Data set [12] in a line: Elimination half life in C57/6J mouse at 5 mg/kg, po. It is filed as ADME, organism-based. The arrangement: dose 5 mg/kg, route oral. Conditions: in vivo, read-out: beta t1/2 (converted).
Data set [13] can be described thus: Elimination half life in Lister Hooded rat at 2.5 mg/kg, po. It is filed as ADME, organism-based. The arrangement: dose 2.5 mg/kg, route oral. As to conditions: in vivo, read-out: beta t1/2 (converted).
For data set [14], the target named is T1, Metabotropic glutamate receptor 5. Put plainly: Agonist activity at human mGluR5 transiently transfected in BHK cells assessed as potentiation of L-glutamate-induced calcium flux at 100 nM by FLIPR assay. It is filed as functional, cell-based.
Target sequence in this assay (P41594 21-1212 limits assumed): as above
Data set [15] has the same target. Briefly: Agonist activity at human mGluR5 transiently transfected in BHK cells assessed as potentiation of L-glutamate-induced calcium flux at 1000 nM by FLIPR assay. It is filed as functional, cell-based.
Target sequence in this assay (P41594 21-1212 limits assumed): as above
Data set [16] shares this target. Briefly: Agonist activity at human mGluR5 transiently transfected in BHK cells assessed as 5.5 fold decrease in L-glutamate EC50 for induction of calcium flux at 1 uM by FLIPR assay.
Target sequence in this assay (P41594 21-1212 limits assumed): as above
The target is the same in data set [17]. Put plainly: Agonist activity at human mGluR5 transiently transfected in BHK cells assessed as potentiation of L-glutamate-induced calcium flux by FLIPR assay relative to L-glutamate. It is filed as functional, cell-based.
The target is the same in data set [18]. Put plainly: Agonist activity at human mGluR5 transiently transfected in BHK cells assessed as potentiation of L-glutamate-induced calcium flux at 10 uM by FLIPR assay.
Target sequence in this assay (P41594 whole entry): as the sequence (P41594 whole entry) above

The structures appear in SMILES notation. Converted amounts (≈) assume the structure as drawn. The source made the active and inactive calls. The calls are words filed in the database; no cut-off is given here.

Sequence of Metabotropic glutamate receptor 1 (Homo sapiens) (Q13255 19-1194 limits assumed): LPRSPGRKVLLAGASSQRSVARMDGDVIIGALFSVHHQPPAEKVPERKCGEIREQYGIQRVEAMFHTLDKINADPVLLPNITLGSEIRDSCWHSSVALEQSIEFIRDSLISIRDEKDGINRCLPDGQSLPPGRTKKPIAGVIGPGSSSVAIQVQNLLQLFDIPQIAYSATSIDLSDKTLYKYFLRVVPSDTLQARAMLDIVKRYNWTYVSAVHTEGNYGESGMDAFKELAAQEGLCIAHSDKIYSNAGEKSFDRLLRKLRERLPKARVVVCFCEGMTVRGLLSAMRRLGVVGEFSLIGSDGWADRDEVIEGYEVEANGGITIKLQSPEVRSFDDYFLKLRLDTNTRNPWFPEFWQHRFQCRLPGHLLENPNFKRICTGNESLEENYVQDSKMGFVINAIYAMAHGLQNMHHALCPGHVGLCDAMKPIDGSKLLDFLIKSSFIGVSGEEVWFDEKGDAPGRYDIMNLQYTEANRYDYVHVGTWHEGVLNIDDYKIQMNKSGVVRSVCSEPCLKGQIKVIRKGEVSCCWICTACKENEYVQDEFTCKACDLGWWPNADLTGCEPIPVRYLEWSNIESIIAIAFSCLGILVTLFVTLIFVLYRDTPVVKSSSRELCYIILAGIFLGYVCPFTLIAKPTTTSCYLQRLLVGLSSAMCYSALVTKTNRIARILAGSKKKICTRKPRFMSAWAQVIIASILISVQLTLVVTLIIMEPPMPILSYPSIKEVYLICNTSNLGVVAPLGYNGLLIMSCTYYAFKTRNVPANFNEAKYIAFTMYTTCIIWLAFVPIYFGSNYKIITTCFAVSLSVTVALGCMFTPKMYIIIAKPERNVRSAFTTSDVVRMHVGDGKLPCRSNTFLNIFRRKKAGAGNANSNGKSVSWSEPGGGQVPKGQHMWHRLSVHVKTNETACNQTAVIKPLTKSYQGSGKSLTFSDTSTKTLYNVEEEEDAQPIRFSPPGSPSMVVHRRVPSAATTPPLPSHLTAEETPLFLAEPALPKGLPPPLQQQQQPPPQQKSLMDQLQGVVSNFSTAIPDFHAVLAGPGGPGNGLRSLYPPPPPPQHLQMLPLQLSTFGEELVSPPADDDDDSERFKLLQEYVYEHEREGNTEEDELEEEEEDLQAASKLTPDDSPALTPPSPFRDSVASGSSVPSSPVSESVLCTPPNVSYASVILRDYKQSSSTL

The term EC50 denotes the midpoint of the concentration-response curve. In general, Ki refers to the equilibrium dissociation constant of an inhibitor or competing ligand from its target. Broadly, the solubility is the dissolved amount per volume that the medium holds. A higher solubility goes with a readily soluble substance. In general, Kp refers to tissue or fluid exposure divided by exposure in the circulation. Turning to `O=C(NC1CCCC1)c1ccc(C#Cc2ccccc2)nc1`, the EC50 in data set [1] was determined as 30 nM. Also, the outcome in data set [2], in [6], in [7] and in data set [8] was inactive. Also, the Activity in [3] turned out to be 30%. The inhibition constant Ki in data set [4] is 1800 nM. In addition, the result in [5], in [14], in data set [15] and in [16] was Active. This molecule showed a solubility in data set [9] of 1.7 µM (≈ 0.494 µg/mL). For the same molecule, the Kp in data set [10] stood at 0.5; in data set [11] it was 0.3. The results for the half-life in data set [12] and in [13] were 1 h and 4 h, respectively.
For `CC(C)CCNC(=O)c1ccc(C#Cc2ccccc2)nc1`, in data set [1], the EC50 worked out at 510 nM.
On the same count and under the same terms, the figure for `O=C(NC1CCCCC1)c1ccc(C#Cc2ccccc2)nc1` is 240 nM.
For `C(#Cc1ccc(C(N2CCOCC2)N2CCOCC2)cc1)c1ccccc1`, the EC50 in [1] was 970 nM. The Activity in [17] came out at 73%.
In the case of `O=C(NCc1ccco1)c1ccc(C#Cc2ccccc2)nc1`, in data set [1], the EC50 came out at 180 nM.
`CC1CCN(C(=O)c2ccc(C#Cc3ccccc3)nc2)CC1`: in data set [1], the EC50 came out at 130 nM.
Still for that read-out and setting: the figure for `O=C(c1ccc(C#Cc2ccccc2)nc1)N1CCSCC1` is 46 nM; for `O=C(c1ccc(C#Cc2ccccc2)nc1)N1CCOCC1` it is 990 nM; for `CC1CCC(NC(=O)c2ccc(C#Cc3ccccc3)nc2)CC1` (stereo not drawn) it is 1200 nM.
Still for that read-out and setting: the figure for `O=C(c1ccc(C#Cc2ccccc2)nc1)N1CCCCC1` is 280 nM; for `CN1CCN(C(=O)c2ccc(C#Cc3ccccc3)cc2)CC1` it is 3100 nM.
`CCOC(=O)c1ccc(C#Cc2ccccc2)nc1`: the EC50 entry in data set [18] is “Not Active”.
As for `CN1CCN(C(=O)c2ccc(C#Cc3ccccc3)nc2)CC1`, the 50% effective concentration (EC50) in data set [1] stood at 1600 nM.
On the same count and under the same terms, the figure for `CC1CCN(C(=O)c2ccc(C#Cc3ccccc3)cc2)CC1` is 720 nM; for `O=C(NCc1ccsc1)c1ccc(C#Cc2ccccc2)cc1` it is 1200 nM.
The same measure, in the same setting: with `NC(=O)c1ccc(C#Cc2ccccc2)nc1` the figure was 6600 nM; with `O=C(NCc1ccsc1)c1ccc(C#Cc2ccccc2)nc1`, 140 nM.

These data come from ChEMBL document CHEMBL1158434, “Discovery of a potent and brain penetrant mGluR5 positive allosteric modulator” (Bioorg Med Chem Lett, 2009).
